Laboratory results from PubChem BioAssay (NCI).
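Following 48 hours of exposure in 96-well plates, responses at five concentrations were used to interpolate endpoints linearly. Definition used: TGI = concentration required for complete inhibition of growth.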

Key:
Experiment in all cases: NCI tumour cell line growth inhibition, 48 h
[1] = system: A549 NSCLC
[2] = system: COLO 205 colon
[3] = system: HOP-62 NSCLC
[4] = system: HT29 colon
[5] = system: IGROV1 ovarian
[6] = system: K-562 leukemia
[7] = system: KM12 colon
[8] = system: LOX IMVI melanoma
[9] = system: MALME-3M melanoma
[10] = system: MCF7 breast
[11] = system: MOLT-4 leukemia
[12] = system: NCI-H23 lung
[13] = system: NCI-H522 lung
[14] = system: OVCAR-3 ovarian
[15] = system: OVCAR-4 ovarian
[16] = system: OVCAR-8 ovarian
[17] = system: RXF 393 renal
[18] = system: SF-539 CNS
[19] = system: SK-MEL-5 melanoma
[20] = system: SNB-75 CNS

C=CCn1c(=O)ccn(COCCO)c1=O
TGI [1]: > 100 µM
TGI [2]: > 100 µM
TGI [3]: > 100 µM
TGI [4]: > 100 µM
TGI [5]: > 100 µM
TGI [6]: > 100 µM
TGI [7]: > 100 µM
TGI [8]: > 100 µM
TGI [9]: > 100 µM
TGI [10]: > 100 µM
TGI [11]: > 100 µM
TGI [12]: > 100 µM
TGI [13]: > 100 µM
TGI [14]: > 100 µM
TGI [15]: > 100 µM
TGI [16]: > 100 µM
TGI [17]: > 100 µM
TGI [18]: > 100 µM
TGI [19]: > 100 µM
TGI [20]: > 100 µM

COc1nc(C#CCC(C)O)nc(OC)n1 (stereo not given)
TGI [1]: 52.9 µM
TGI [2]: 56.8 µM
TGI [3]: 36.8 µM
TGI [4]: > 100 µM
TGI [5]: 42.3 µM
TGI [6]: > 100 µM
TGI [7]: 82 µM
TGI [8]: 40.6 µM
TGI [9]: 25.6 µM
TGI [10]: 33.5 µM
TGI [11]: > 100 µM
TGI [12]: 43.4 µM
TGI [13]: 34 µM
TGI [14]: 47.9 µM
TGI [15]: 36.2 µM
TGI [16]: 39.5 µM
TGI [17]: 24.2 µM
TGI [18]: 59.2 µM
TGI [19]: 34.7 µM
TGI [20]: 64 µM

O=S(=O)(O)c1cc2ccc1/C=C\c1ccc(cc1S(=O)(=O)O)N=Nc1ccc(c(S(=O)(=O)O)c1)/C=C\c1ccc(cc1S(=O)(=O)O)N=N2
TGI [1]: > 100 µM
TGI [2]: > 100 µM
TGI [3]: > 100 µM
TGI [4]: > 100 µM
TGI [5]: > 100 µM
TGI [6]: > 100 µM
TGI [7]: > 100 µM
TGI [8]: > 100 µM
TGI [9]: > 100 µM
TGI [10]: > 100 µM
TGI [11]: > 100 µM
TGI [12]: > 100 µM
TGI [13]: > 100 µM
TGI [14]: > 100 µM
TGI [15]: > 100 µM
TGI [16]: > 100 µM
TGI [17]: > 100 µM
TGI [18]: > 100 µM
TGI [19]: > 100 µM
TGI [20]: > 100 µM
